Patent US20250353864A1, “INDAZOLE CONTAINING MACROCYCLES AND THEIR USE” (BLOSSOMHILL THERAPEUTICS, INC., priority 2022, published 2025)

Assays:
Type in all cases: biochemical
[1] = molecular target: EGFR L858R/T790M/C797S mutant (Homo sapiens (Human), UniProt P00533, C797S/L858R/T790M); test: HotSpot radiometric kinase assay, EGFR L858R/T790M/C797S mutant; conditions: 10 μM ATP
Protocol: (§1) Biochemical Assays for Inhibition of Wild-Type and Mutant EGFRs
(§2) Briefly, specific kinase/substrate pairs along with required cofactors were prepared in reaction buffer; 20 mM Hepes pH 7.5, 10 mM […], 1 mM EGTA, 0.02% Brij35, 0.02 mg/ml BSA, 0.1 mM Na3VO4, 2 mM DTT, 1% DMSO. Compounds were delivered into the reaction, followed […] later by addition of a mixture of ATP (Sigma, St. Louis MO) and ^33P ATP (Perkin Elmer, Waltham MA) to a final concentration of 10 μM. Reactions were carried out at room temperature for 120 min, followed by spotting of the reactions onto P81 ion exchange filter paper (Whatman Inc., Piscataway, NJ). Unbound phosphate was removed by extensive washing of filters in 0.75% phosphoric acid. […] IC50 values and curve fits were obtained using Prism (GraphPad Software).

EGFR (D770_N771insNPG) = EGFR (D770_N771insNPG) (Homo sapiens (Human), UniProt P00533, INS770NPG); test: HotSpot radiometric kinase assay, EGFR (D770_N771insNPG); conditions: 10 μM ATP, read-out: EGFR (Δ770_N771insNPG) IC50
Protocol: as §1, §2

[2] = molecular target: EGFR Δ746-750/C797S mutant (Homo sapiens (Human), UniProt P00533, C797S/DEL746-750); test: HotSpot radiometric kinase assay, EGFR Δ746-750/C797S mutant; conditions: 10 μM ATP
Protocol: as §1, §2

EGFR WT = EGFR WT (Homo sapiens (Human), UniProt P00533); test: HotSpot radiometric kinase assay (Reaction Biology), EGFR WT; conditions: 10 μM ATP
Protocol: as §1, §2

EGFR Δ746-750 mutant = EGFR Δ746-750 mutant (Homo sapiens (Human), UniProt P00533, DEL746-750); test: HotSpot radiometric kinase assay, EGFR Δ746-750 mutant; conditions: 10 μM ATP
Protocol: as §1, §2

EGFR L858R mutant = EGFR L858R mutant (Homo sapiens (Human), UniProt P00533, L858R); test: HotSpot radiometric kinase assay, EGFR L858R mutant; conditions: 10 μM ATP
Protocol: as §1, §2

Chain of EGFR WT (P00533 25-1210): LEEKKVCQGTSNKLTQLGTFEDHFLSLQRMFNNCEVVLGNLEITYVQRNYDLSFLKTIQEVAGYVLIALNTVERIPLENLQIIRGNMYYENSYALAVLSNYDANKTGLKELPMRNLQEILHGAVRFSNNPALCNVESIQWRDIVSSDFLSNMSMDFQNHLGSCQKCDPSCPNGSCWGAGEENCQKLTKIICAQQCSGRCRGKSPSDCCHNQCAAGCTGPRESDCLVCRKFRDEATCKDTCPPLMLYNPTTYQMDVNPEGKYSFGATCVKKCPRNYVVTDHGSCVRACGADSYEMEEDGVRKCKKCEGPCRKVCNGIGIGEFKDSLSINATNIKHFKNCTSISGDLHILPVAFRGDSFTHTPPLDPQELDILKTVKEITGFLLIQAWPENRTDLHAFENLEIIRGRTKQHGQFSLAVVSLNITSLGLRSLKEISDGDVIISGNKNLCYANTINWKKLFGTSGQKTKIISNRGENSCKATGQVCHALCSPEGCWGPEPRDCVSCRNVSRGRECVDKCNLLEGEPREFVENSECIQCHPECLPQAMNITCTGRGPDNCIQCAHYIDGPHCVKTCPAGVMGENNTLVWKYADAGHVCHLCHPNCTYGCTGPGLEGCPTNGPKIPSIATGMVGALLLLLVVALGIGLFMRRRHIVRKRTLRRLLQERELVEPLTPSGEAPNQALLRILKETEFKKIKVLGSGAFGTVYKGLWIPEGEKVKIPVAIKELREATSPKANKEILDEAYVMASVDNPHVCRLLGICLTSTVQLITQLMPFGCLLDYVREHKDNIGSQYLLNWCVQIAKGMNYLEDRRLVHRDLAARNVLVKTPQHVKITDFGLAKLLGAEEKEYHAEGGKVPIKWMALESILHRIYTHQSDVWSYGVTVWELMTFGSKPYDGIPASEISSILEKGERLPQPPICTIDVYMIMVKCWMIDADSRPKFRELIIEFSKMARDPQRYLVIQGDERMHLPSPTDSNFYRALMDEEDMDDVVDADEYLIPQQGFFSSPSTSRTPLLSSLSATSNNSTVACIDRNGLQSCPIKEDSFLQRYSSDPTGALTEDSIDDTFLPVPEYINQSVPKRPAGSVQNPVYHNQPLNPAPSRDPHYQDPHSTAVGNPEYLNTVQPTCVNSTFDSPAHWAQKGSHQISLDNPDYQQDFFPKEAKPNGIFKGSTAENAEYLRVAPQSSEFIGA
Chain of EGFR (D770_N771insNPG) (P00533 other isoform, or with tags, fused parts or gaps del 1-668/ins NPG behind 770 limits assumed): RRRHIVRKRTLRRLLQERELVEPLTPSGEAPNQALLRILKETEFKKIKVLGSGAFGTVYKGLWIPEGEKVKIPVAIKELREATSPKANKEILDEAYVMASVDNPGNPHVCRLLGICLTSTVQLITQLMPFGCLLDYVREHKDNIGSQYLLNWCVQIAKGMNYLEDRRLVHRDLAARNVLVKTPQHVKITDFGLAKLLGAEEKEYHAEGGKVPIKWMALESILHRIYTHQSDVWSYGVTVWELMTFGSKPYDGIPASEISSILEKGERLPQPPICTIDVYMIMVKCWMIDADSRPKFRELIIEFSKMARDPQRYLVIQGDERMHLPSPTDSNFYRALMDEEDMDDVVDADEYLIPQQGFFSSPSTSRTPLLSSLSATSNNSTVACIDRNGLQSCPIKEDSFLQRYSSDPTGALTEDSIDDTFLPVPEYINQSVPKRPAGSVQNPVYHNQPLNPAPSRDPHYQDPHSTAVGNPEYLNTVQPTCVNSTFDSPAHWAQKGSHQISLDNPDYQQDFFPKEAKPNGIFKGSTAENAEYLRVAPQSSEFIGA
Chain of EGFR L858R mutant (P00533 25-1210 L858R): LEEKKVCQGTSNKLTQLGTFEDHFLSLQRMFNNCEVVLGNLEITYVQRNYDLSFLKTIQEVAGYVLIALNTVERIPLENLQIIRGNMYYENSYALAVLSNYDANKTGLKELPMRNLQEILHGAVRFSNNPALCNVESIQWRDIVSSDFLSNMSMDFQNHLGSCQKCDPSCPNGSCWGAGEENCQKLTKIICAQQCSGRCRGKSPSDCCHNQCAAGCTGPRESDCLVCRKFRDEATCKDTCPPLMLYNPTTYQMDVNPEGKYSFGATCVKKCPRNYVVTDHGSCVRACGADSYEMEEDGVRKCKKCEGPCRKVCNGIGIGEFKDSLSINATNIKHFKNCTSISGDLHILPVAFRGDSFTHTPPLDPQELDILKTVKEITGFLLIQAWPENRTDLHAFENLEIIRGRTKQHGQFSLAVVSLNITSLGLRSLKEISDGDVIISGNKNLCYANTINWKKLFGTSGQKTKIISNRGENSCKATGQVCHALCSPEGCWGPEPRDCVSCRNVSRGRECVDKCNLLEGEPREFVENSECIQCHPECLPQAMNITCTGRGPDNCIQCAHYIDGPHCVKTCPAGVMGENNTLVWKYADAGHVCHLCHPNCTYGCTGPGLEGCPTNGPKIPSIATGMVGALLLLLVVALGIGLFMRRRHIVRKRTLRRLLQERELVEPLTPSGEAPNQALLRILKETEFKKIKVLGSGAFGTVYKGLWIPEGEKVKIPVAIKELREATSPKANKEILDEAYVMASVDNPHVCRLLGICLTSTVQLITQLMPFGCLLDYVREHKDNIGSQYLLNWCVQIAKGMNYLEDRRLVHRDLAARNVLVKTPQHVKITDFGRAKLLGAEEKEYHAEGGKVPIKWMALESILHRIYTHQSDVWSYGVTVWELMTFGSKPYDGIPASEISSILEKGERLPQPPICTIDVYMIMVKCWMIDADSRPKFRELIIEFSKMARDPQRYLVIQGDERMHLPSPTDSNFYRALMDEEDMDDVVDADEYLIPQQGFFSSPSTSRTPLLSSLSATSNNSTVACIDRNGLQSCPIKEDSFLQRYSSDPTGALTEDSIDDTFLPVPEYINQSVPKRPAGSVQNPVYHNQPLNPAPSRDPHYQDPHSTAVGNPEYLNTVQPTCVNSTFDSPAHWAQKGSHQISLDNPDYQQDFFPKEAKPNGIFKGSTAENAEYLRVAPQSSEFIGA
Chain of EGFR Δ746-750/C797S mutant (P00533 other isoform, or with tags, fused parts or gaps C797S/del 1-668/del 746-750 limits assumed): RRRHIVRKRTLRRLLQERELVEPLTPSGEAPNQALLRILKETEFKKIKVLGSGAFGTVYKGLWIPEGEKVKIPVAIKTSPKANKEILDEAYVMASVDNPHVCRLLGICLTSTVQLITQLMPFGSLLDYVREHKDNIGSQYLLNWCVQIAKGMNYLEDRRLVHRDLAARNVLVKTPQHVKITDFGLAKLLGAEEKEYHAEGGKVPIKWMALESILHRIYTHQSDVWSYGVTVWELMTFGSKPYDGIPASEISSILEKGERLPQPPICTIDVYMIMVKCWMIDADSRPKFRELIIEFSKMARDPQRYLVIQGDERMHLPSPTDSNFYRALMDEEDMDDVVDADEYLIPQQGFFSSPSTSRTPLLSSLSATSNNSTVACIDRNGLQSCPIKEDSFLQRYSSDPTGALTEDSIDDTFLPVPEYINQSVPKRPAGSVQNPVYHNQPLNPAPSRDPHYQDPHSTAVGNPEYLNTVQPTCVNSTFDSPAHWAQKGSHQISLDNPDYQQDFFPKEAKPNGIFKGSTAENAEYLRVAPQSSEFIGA
Chain of EGFR Δ746-750 mutant (P00533 other isoform, or with tags, fused parts or gaps del 1-668/del 746-750 limits assumed): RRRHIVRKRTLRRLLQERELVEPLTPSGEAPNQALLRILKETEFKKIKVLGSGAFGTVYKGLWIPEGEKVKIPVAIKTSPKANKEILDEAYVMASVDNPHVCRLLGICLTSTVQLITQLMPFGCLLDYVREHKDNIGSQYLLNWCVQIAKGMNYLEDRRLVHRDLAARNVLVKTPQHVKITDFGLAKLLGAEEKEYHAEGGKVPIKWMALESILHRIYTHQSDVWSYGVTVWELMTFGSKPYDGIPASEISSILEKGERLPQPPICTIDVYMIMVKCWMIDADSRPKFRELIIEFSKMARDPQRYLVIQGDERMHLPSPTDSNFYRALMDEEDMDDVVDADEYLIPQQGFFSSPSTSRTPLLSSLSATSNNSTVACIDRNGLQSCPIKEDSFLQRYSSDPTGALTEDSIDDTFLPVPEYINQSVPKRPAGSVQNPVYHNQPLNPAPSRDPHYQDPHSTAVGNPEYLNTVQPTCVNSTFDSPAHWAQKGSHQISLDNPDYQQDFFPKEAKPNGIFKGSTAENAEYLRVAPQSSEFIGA

| IC50 [1] | IC50 (EGFR (D770_N771insNPG)) | IC50 [2] | IC50 (EGFR WT) | IC50 (EGFR Δ746-750 mutant) | IC50 (EGFR L858R mutant) | SMILES |
| --- | --- | --- | --- | --- | --- | --- |
| 27 nM | > 1000 nM | 130 nM | 1460 nM | 112 nM | 285 nM | Cc1c2c(nn1C)CN(C)CCOc1c(cnn1C)-c1ccc3[nH]nc(c3c1)/C=C/2 [Example 44, (17E)-8,12,15,16-tetramethyl-2,10,11,12,13,15-hexahydro-8H-3,5-ethenotripyrazolo[3,4-f:3′,4′-j:4″,3″- n][1,4]oxazacyclopentadecine] |
| 4.93 nM | 731 nM | – | 927 nM | 58.7 nM | 67.7 nM | CC(=O)Cn1nc(C)c2c1OCCCOc1c(cnn1C)-c1ccc3[nH]nc(c3c1)/C=C/2 [Example 31, 1-[(17E)-8,16-dimethyl-2,8,11,12-tetrahydro-10H,14H-3,5-etheno[1,5]dioxacyclopentadecino[10,11-c:15,14-c′:6,7-c″]tripyrazol-14-yl]propan-2-one] |
| – | 304 nM | 101 nM | – | 221 nM | – | Cc1nn(C)c2c1/C=C/c1n[nH]c3ccc(cc13)-c1cnn(C)c1CN(C)C[C@H](C)O2 (single isomer, unassigned) [Example 97] |
| – | 304 nM | 40.3 nM | – | 55.5 nM | – | CCOc1nn(CCO)c2c1/C=C/c1n[nH]c3ccc(cc13)-c1cnn(C)c1OC1CCCN(C2)C1C (stereo not drawn) [Example 242, 2-[(19E)-18-ethoxy-8,21-dimethyl-2,10,11,12,13,15-hexahydro-3,5-etheno-10,14-methanotripyrazolo[3,4-h:3′,4′-l:4″,3″-p][1,6]oxazacycloheptadecin-16(8H)-yl]ethan-1-ol] |
| 36.8 nM | 983 nM | – | 1300 nM | 217 nM | 268 nM | Cc1nn(CC(C)(C)O)c2c1/C=C/c1n[nH]c3ccc(cc13)-c1cnn(C)c1OCCCO2 [Example 30, 1-[(17E)-8,16-dimethyl-2,8,11,12-tetrahydro-10H,14H-3,5-etheno[1,5]dioxacyclopentadecino[10,11-c:15,14-c′:6,7-c″]tripyrazol-14-yl]-2-methylpropan-2-ol] |
| – | > 1000 nM | 944 nM | – | 488 nM | – | Cc1nn(C)c2c1/C=C/c1n[nH]c3ccc(cc13)-c1c(C)nn(C)c1OCCN(C)C2 [Example 47, (17E)-6,8,12,14,16-pentamethyl-2,10,11,12,13,14-hexahydro-8H-3,5-ethenotripyrazolo[3,4-f:3′,4′-j:4″,3″- n][1,4]oxazacyclopentadecine] |
| – | 191 nM | 6.67 nM | – | 19.7 nM | – | Cc1c2c(nn1CCN1CCCC1)CN(C)C[C@H](C)Oc1c(cnn1C)-c1ccc3[nH]nc(c3c1)/C=C/2 [Example 89, (10S,17E)-8,10,12,16-tetramethyl-15-[2-(pyrrolidin-1-yl)ethyl]-2,10,11,12,13,15-hexahydro-8H-3,5-ethenotripyrazolo[3,4-f:3′,4′-j:4″,3″-n][1,4]oxazacyclopentadecine] |
| 37.3 nM | 457 nM | – | 1260 nM | 155 nM | 242 nM | Cc1nn(CCN2CCCC2)c2c1/C=C/c1n[nH]c3ccc(cc13)-c1cnn(C)c1OCCCO2 [Ex. 32, (17E)-8,16-dimethyl-14-[2-(pyrrolidin-1-yl)ethyl]-2,11,12,14-tetrahydro-8H,10H-3,5-etheno[1,5]dioxacyclopentadecino[10,11-c:15,14-c′:6,7-c″ ]tripyrazole] |
| 48.4 nM | 521 nM | – | 523 nM | 132 nM | 49.2 nM | Cn1ncc2c1OCCCCOc1ccccc1/C=C/c1n[nH]c3ccc-2cc13 [Ex. 16, (11E)-1-methyl-18,19,20,21-tetrahydro-1H,8H-10,7,4-(ethan[1]yl[1,2]diylidene)pyrazolo[3,4-g][1,6,13,14]benzodioxadiazacyclononad ecine] |
| – | 55.4 nM | 31.3 nM | – | 34.6 nM | – | Cc1c2c(nn1[C@H]1CCN(C)C[C@@H]1O)OCCCOc1c(cnn1C)-c1ccc3[nH]nc(c3c1)/C=C/2 (racemic) [Example 83, (rac)-4-[(17E)-8,16-dimethyl-2,8,11,12-tetrahydro-10H,15H-3,5-etheno[1,5]dioxacyclopentadecino[10,11-c:15,14-c′:6,7-c″]tripyrazol-15-yl]-1-methylpiperidin-3-ol] |
| 19.5 nM | 312 nM | 34.7 nM | 339 nM | 124 nM | 63.8 nM | CCc1nn(C)c2c1/C=C/c1n[nH]c3ccc(cc13)-c1cnn(C)c1OCC[C@H](C)O2 [Ex. 14, (12S,17E)-16-ethyl-8,12,14-trimethyl-2,11,12,14-tetrahydro-8H,10H-3,5-etheno[1,5]dioxacyclopentadecino[10,11-c:15,14-c′:6,7-c″]tripyrazole] |
| 27.2 nM | 945 nM | – | 1170 nM | 284 nM | 349 nM | Cc1c2c(nn1C)OCCCOc1c(cnn1C)-c1ccc3[nH]nc(c3c1)/C=C/2 [Ex. 9, (17E)-8,15,16-trimethyl-2,11,12,15-tetrahydro-8H,10H-3,5-etheno[1,5]dioxacyclopentadecino[10,11-c:15,14-c′:6,7-c″]tripyrazole] |
| – | 713 nM | – | – | 74.3 nM | – | CCc1nn(C)c2c1/C=C/c1n[nH]c3ccc(cc13)-c1cnn(C)c1OCCCO2 [Ex. 10, (17E)-16-ethyl-8,14-dimethyl-2,11,12,14-tetrahydro-8H,10H-3,5-etheno[1,5]dioxacyclopentadecino[10,11-c:15,14-c′:6,7-c″]tripyrazole] |
| – | 0.18 nM | 0.31 nM | – | 0.13 nM | – | CCOc1nn(CCO)c2c1/C=C/c1n[nH]c3ccc(cc13)-c1cnn(C)c1O[C@H](C)[C@H]1CCCN1C2 (single isomer, unassigned) [compound 241] |
| 17.3 nM | 212 nM | 49.9 nM | 157 nM | 64 nM | 41.8 nM | CCc1nn(C)c2c1/C=C/c1n[nH]c3ccc(cc13)-c1cnn(C)c1O[C@@H](C)CCO2 [Ex. 37, (10S,17E)-16-ethyl-8,10,14-trimethyl-2,11,12,14-tetrahydro-8H,10H-3,5-etheno[1,5]dioxacyclopentadecino[10,11-c:15,14-c′:6,7-c″]tripyrazole] |
| – | 1440 nM | – | – | 176 nM | – | Cc1ccc2c(n1)/C=C/c1n[nH]c3ccc(cc13)-c1cnn(C)c1O[C@@H](C)CCO2 [Ex. 39, (10S,18E)-8,10,16-trimethyl-2,8,11,12-tetrahydro-10H-3,5-ethenodipyrazolo[3′,4′:10,11;4″,3″:14,15] [1,5]dioxacyclopentadecino[7,6-b]pyridine] |
| 40.9 nM | 191 nM | – | 326 nM | 154 nM | 114 nM | Cc1c2c(nn1CCN1CCCC1)OCCCOc1c(cnn1C)-c1ccc3[nH]nc(c3c1)/C=C/2 [Example 34, (17E)-8,16-dimethyl-15-[2-(pyrrolidin-1-yl)ethyl]-2,11,12,15-tetrahydro-8H,10H-3,5-etheno[1,5]dioxacyclopentadecino[10,11-c:15,14-c′:6,7-c″]tripyrazole] |
| 578 nM | > 1000 nM | – | > 1000 nM | 819 nM | 1000 nM | Cc1c2c(nn1CC(C)(C)O)OCCCOc1c(cnn1C)-c1ccc3[nH]nc(c3c1)/C=C/2 [Ex. 28, 1-[(17E)-8,16-dimethyl-2,8,11,12-tetrahydro-10H,15H-3,5-etheno[1,5]dioxacyclopentadecino[10,11-c:15,14-c′:6,7-c″ ]tripyrazol-15-yl]-2-methylpropan-2-ol] |
| – | 551 nM | 130 nM | – | 381 nM | – | Cc1c2c(nn1CCN1CCCC1)OCCOC(C)c1c(cnn1C)-c1ccc3[nH]nc(c3c1)/C=C/2 (stereo not drawn) [Example 84, (17E)-8,9,16-trimethyl-15-[2-(pyrrolidin-1-yl)ethyl]-2,8,9,11,12,15-hexahydro-3,5-etheno[1,4]dioxacyclopentadecino[11,10-c:15,14-c′:6,7-c″]tripyrazole] |
| 863 nM | – | – | – | – | – | CNC(=O)c1cnc2c(c1)/C=C/c1n[nH]c3ccc(cc13)-c1cnn(C)c1COCCO2 [Example 3, (18E)-N,8-dimethyl-8,9,11,12-tetrahydro-2H-3,5-ethenodipyrazolo[3′,4′:9,10;4″,3″:13,14] [1,4]dioxacyclopentadecino[5,6-b]pyridine-16-carboxamide] |
| 315 nM | 1770 nM | – | > 1000 nM | 755 nM | > 1000 nM | Cc1c2c(nn1CCO)OCCCOc1c(cnn1C)-c1ccc3[nH]nc(c3c1)/C=C/2 [Ex. 24, 2-[(17E)-8,16-dimethyl-2,8,11,12-tetrahydro-10H,15H-3,5-etheno[1,5]dioxacyclopentadecino[10,11-c:15,14-c′:6,7-c″]tripyrazol-15-yl]ethan-1-ol] |
